Assay results taken from patent US20050221411A1, “Interaction of NMDA receptor with the protein tyrosine phosphatase step in psychotic disorders” (AGY Therapeutics, Inc., priority 2003, published 2005).
“Also recorded” adds a separate entry of the source.

Experiments:
[1] = test system: GABAA receptor b subunit; test: Surface expression of GABAA receptor b subunit in neurons (biotinylation, Western blot); assay type: cell-based; details: versus RNAi-Scrambled
Source text: (§1) Interfering RNA molecules were introduced into neurons by AMAXA nucleofection. To specifically knockdown STEP the oligo used had the sequence 5′-[…]-3′, a control siRNA that is predicted not to knock down levels of any gene products (sequence 5′-[…]-3′ was also used (Dharmacon, Lafayette, Colo.). Interfering RNA molecules were introduced into neurons using the AMAXA nucleofection technique (AMAXA, Gaithersburg, Md.) using the manufacturers protocol. Neurons were allowed to grow in culture for 3-4 days prior to experimental procedures.
(§2) Neurons were washed with ice cold PBS. Sulfo-NHS-LC-Biotin (Pierce Biotechnology, Rockford, Ill.) was dissolved at 1.5 mg/ml in ice cold PBS and incubated with the cells for 1 hour at […]. Excess biotin was washed off the cells with ice cold PBS and cells lysed and harvested as above. […] of protein lysate was incubated with 100 μl of neutravadin agarose slurry (Pierce Biotechnology) overnight at […]. The complexes were washed thoroughly and proteins eluted from the beads by resuspension in SDS loading buffer and boiling for 10 mins. Proteins were loaded on 8% Tris-gicine gels and separated by SDS-PAGE. Western blotting was performed by standard means using the indicated antibodies.

[2] = test system: NMDA receptors (NR1, NR2A, NR2B); test: Surface expression of NMDA receptor subunits in neurons (biotinylation, Western blot); assay type: cell-based
Source text: as §1, §2

[3] = test system: EGF receptors; test: Surface expression of EGF receptors in neurons (biotinylation, Western blot); assay type: cell-based; details: versus RNAi-Scrambled
Source text: as §1, §2

[4] = test system: NMDA receptors; test: NMDA mediated calcium influx in cultured cortical neurons after RNAi (FLEXstation); assay type: cell-based, rat; details: 1 μM NMDA, four days after transfection, versus scrambled RNA molecule
[5] = test system: STEP61; test: Knockdown of STEP protein by RNAi in cultured cortical neurons (Western blot); assay type: cell-based, rat
Experimental: Single stranded interfering RNA molecules (RNAi) were designed to be complementary to the sequence of STEP by standard means. The sequence used was 5′ AAACAUGCGAACAGUAUCAGU 3′. A standard scrambled RNA molecule of sequence 5′-CAG TCG CGT TTG CGA CTG G-3′ was used as a control. Dissociated cortical neurons were prepared from E18 rat embryos by standard protocols. The dissociated neurons were mixed with 90 ul of rat Nucleofector solution to give a final concentration of 4.8×10^6 cells/90 ul. The cells were mixed with 20 ug of RNAi and transferred to an electroporation cuvette. Using an AMAXA Nucleofector cells were electroporated using standard settings. Cells were transferred from the electroporation cuvette to poly-D-lysine coated 96 well plates for calcium flux assays or 6 well plates for Western blotting procedures and grown in standard neuronal media at 37° C. with 5% CO2 for 4 days.
Knockdown of endogenous STEP protein levels was visualized by Western blotting. Four days after electroporation cells were harvested and lysed with lysis buffer (150 mM NaCl, 50 mM Tris pH 7.6, 1% triton, in the presence of a protease inhibitor cocktail and 1 mM sodium orthovanadate) on ice. […] Levels of STEP protein were determined by Western blotting using anti-STEP antibodies (FIG. 6).

[6] = test system: GluR1 subunit of AMPA receptors; test: Surface expression of AMPA receptor GluR1 subunit in neurons (biotinylation, Western blot); assay type: cell-based; details: versus RNAi-Scrambled
Source text: as §1, §2

[7] = test system: NMDA receptor / ERK phosphorylation; test: NMDAR mediated ERK phosphorylation in cultured cortical neurons (Western blot); assay type: cell-based
Experimental: […] SDS-PAGE was performed and western blotting used to detect ERK phosphorylation levels.
ERK phosphorylation in cultured cortical neurons (10-13 division) can be elicited by activation of NMDARs.

5′ AAACAUGCGAACAGUAUCAGU 3′ (guide AAACAUGCGAACAGUAUCAGU; siRNA; RNA, backbone and methylation of C not given here; single-stranded interfering RNA) [RNAi-STEP]
surface levels of the GABAA receptor b subunit [1]: unaffected | total levels of each subunit ([2]; RNAi-STEP or RNAi-Scrambled): the same | levels of surface NR1 ([2]; versus RNAi-Scrambled): increased | levels of surface NR2A ([2]; versus RNAi-Scrambled): increased | levels of surface NR2B ([2]; versus RNAi-Scrambled): increased | surface levels of EGF receptors [3]: unaffected | Ca influx elicited by application of NMDA [4]: increase in NMDA receptor mediated Ca influx | Ca influx elicited by application of NMDA ([4]; listed as inhibitory RNA to STEP): larger NMDA response | levels of STEP61 protein ([5]; cultured cortical neurons, four days after transfection, versus scrambled RNA molecule): lower levels of STEP61 protein | STEP levels in the total protein lysate ([5]; neurons, AMAXA nucleofection, relative to RNAi-Scrambled): knocked down | surface levels of the GluR1 subunit of AMPA receptors [6]: unaffected

N[C@H](CCCP(=O)(O)O)C(=O)O [D-APV, D-2-amino-5-phosphonopentanoic acid]
NMDA stimulated ERK phosphorylation ([7]; D-APV 200 μM, stimulation with 100 μM NMDA for 5 minutes): blocked; also recorded: inhibits

CN[C@H](CC(=O)O)C(=O)O [NMDA, N-methyl-D-aspartate]
ERK phosphorylation levels ([7]; 100 μM NMDA for 5 minutes, cultured cortical neurons (10-13 division)): significant ERK phosphorylation; also recorded: significantly increased
